Assays:
[1] = tested on: Human Herpesvirus Type 6A (HHV-6A); experiment: Antiviral test against HHV-6A in Sup-T1 cells, TaqMan PCR; type: cell-based
Method: [Antiviral Test Against HHV-6A]
An antiviral test against HHV-6A using Compound 1 was performed by the following procedure.
Virus strain: Human Herpesvirus Type 6A (HHV-6A)
(§1) Medium: RPMI-1640+10% FBS+1% penicillin/streptomycin
(§2) Detection method: TaqMan PCR
Sup-T1 cells were cultured at a concentration of 1×10^6/ml, Compound 1, 3 μM, was added, and one hour after, HHV-6A virus (1×10^4 infectious units) were sensitized (or unsensitized cells were prepared as a negative control).
After culturing at 37° C. for two hours, the medium was replaced, and Compound 1 was added again. Three days after, 500 μl of the medium was sampled, and HHV-6A virus was quantified by TaqMan PCR. Statistical analysis was performed by Student's t-test.

[2] = biological target: CDK9/CycT1 (Homo sapiens, UniProt P50750); experiment: CDK9 inhibitory activity, Off-chip Mobility Shift Assay (MSA); type: biochemical; conditions: room temperature, one hour, read-out: IC50 value with respect to CDK9/CycT1
CDK9/CycT1, sequence (P50750 whole entry): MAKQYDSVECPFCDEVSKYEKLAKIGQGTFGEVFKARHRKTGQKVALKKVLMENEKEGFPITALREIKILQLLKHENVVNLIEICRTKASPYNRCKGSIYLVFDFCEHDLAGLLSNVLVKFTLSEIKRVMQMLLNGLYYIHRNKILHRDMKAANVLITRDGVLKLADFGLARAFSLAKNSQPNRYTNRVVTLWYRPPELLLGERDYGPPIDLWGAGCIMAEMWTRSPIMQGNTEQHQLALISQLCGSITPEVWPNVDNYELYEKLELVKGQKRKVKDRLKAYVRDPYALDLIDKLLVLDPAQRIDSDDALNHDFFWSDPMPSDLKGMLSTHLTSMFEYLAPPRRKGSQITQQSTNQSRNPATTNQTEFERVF
CDK9/CycT1, sequence (O60563 whole entry partner): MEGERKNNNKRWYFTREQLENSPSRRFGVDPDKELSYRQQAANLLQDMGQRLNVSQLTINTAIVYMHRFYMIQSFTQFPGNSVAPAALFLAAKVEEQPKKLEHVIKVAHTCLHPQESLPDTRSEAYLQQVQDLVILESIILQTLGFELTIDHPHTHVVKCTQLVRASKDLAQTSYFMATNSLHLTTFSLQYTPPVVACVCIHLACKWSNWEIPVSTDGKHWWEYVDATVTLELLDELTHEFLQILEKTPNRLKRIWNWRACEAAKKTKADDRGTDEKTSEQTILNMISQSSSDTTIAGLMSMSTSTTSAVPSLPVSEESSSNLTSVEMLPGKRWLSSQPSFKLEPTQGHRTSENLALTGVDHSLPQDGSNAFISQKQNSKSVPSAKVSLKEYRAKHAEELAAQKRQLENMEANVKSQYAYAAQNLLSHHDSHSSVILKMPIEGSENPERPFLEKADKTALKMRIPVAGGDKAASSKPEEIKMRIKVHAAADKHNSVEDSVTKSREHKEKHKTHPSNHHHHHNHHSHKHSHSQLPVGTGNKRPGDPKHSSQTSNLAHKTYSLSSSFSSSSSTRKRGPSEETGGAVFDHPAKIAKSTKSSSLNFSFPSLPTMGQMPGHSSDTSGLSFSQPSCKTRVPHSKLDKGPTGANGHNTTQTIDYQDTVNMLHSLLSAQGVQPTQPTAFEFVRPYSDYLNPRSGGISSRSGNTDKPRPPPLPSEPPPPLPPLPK
Method: [Assay of CDK9 Inhibitory Activity]
The tests for confirming CDK9 inhibitory activity were carried out by the following procedure according to Off-chip Mobility Shift Assay (MSA).
A substrate/ATP/metal solution (4×) was prepared with use of a kit buffer (20 mM HEPES, 0.01% Triton X-100, 5 mM DTT, pH7.5). A kinase solution (2×) was prepared with use of an assay buffer.
2) The test substance solutions, the substrate/ATP/metal solution, and the kinase solution were mixed in wells of a polypropylene plate, and were caused to react at room temperature for one hour.
3) A termination buffer (QuickScout Screening Assist MSA; Cama Biosciences Inc.)
was added thereto to stop the reaction.
4) Substrate peptides and phosphorylated peptides in the reaction solutions were separated and quantified in LabChip™ System (PerkinElmer Co., Ltd.).
5) Kinase reaction activities were evaluated based on a product ratio (P/(P+S)) calculated from a peak height of the substrate peptide (S) and a peak height of the phosphorylated peptide (P).

[3] = tested on: Human Herpesvirus Type 7 (HHV-7); experiment: Antiviral test against HHV-7 in Sup-T1 cells, TaqMan PCR; type: cell-based
Method: [Antiviral Test Against HHV-7]
An antiviral test against HHV-7 using Compound 1 was performed by the following procedure.
Virus strain: Human Herpesvirus Type 7 (HHV-7)
as §1, §2
Sup-T1 cells were cultured at a concentration of 1×10^6/ml, Compound 1, 10 μM, was added, and one hour after, HHV-7 virus (1×10^4 infectious units) were sensitized (or unsensitized cells were prepared as a negative control).
After culturing at 37° C. for two hours, the medium was replaced, and Compound 1 was added again. Five days after, 500 μl of the medium was sampled, and HHV-7 virus was quantified by TaqMan PCR. Statistical analysis was performed by Student's t-test.

[4] = Tissue distribution of radioactivity after single intravenous administration of 14C-labeled Compound 1 (blood-brain barrier penetration); type: in vivo; conditions: rats, single iv 5 mg/kg 14C-labeled, n = 3
Method: [Testing the Penetration of the Compound Through the Blood-Brain Barrier]
Brain permeability (intracerebral transferability) of Compound 1 was evaluated.
^14C-labeled Compound 1 was intravenously administered once in a dose of 5 mg/kg (3.52 MBq/kg) to rats, and histological distribution (biodistribution) thereof was studied.

Structure (SMILES): Fc1ccc(N2CCCCC2)c(NC(=S)c2ccncc2)c1 [Compound 1]
- Effect of suppressing growth of HHV-6A ([1]; 3 μM, in words): effect of suppressing growth of HHV-6A in the Compound 1-treated group was confirmed
- HHV-6A copy number ([1]; Compound 1 3 μM, medium sampled three days after, TaqMan PCR): 6767.59
- IC50 [2]: 5.8 µM
- Effect of suppressing growth of HHV-7 ([3]; 10 μM, in words): effect of suppressing growth of HHV-7 was confirmed
- HHV-7 copy number ([3]; Compound 1 10 μM, medium sampled five days after, TaqMan PCR): 1844.89
- Radioactivity concentration ([4]; Adrenal gland, 5 min): 47334.91 ng eq. of Compound 1/g or mL
- Radioactivity concentration ([4]; Adrenal gland, 6 h): 1517.3 ng eq. of Compound 1/g or mL
- Radioactivity concentration ([4]; Adrenal gland, 24 h): 195.16 ng eq. of Compound 1/g or mL
- Radioactivity concentration ([4]; Adrenal gland, 72 h): 23.21 ng eq. of Compound 1/g or mL
- Radioactivity concentration ([4]; Aorta, 5 min): 1995.27 ng eq. of Compound 1/g or mL
- Radioactivity concentration ([4]; Aorta, 6 h): 730.03 ng eq. of Compound 1/g or mL
- Radioactivity concentration ([4]; Aorta, 24 h): 76.22 ng eq. of Compound 1/g or mL
- Radioactivity concentration ([4]; Bonemarrow, 5 min): 6109.89 ng eq. of Compound 1/g or mL
- Radioactivity concentration ([4]; Bonemarrow, 6 h): 900.75 ng eq. of Compound 1/g or mL
- Radioactivity concentration ([4]; Bonemarrow, 24 h): 106.7 ng eq. of Compound 1/g or mL
- Radioactivity concentration ([4]; Brown fat, 5 min): 8467.9 ng eq. of Compound 1/g or mL
- Radioactivity concentration ([4]; Brown fat, 6 h): 6412.21 ng eq. of Compound 1/g or mL
- Radioactivity concentration ([4]; Brown fat, 24 h): 217.43 ng eq. of Compound 1/g or mL
- Radioactivity concentration ([4]; Brown fat, 72 h): 11.3 ng eq. of Compound 1/g or mL
- Radioactivity concentration ([4]; Cecum, 5 min): 5555.55 ng eq. of Compound 1/g or mL
- Radioactivity concentration ([4]; Cecum, 6 h): 3979.48 ng eq. of Compound 1/g or mL
- Radioactivity concentration ([4]; Epididymis, 5 min): 2568.88 ng eq. of Compound 1/g or mL
- Radioactivity concentration ([4]; Epididymis, 6 h): 1809.29 ng eq. of Compound 1/g or mL
- Radioactivity concentration ([4]; Epididymis, 24 h): 312.66 ng eq. of Compound 1/g or mL
- Radioactivity concentration ([4]; Epididymis, 72 h): 21.99 ng eq. of Compound 1/g or mL
- Radioactivity concentration ([4]; Eyeball, 5 min): 1785.93 ng eq. of Compound 1/g or mL
- Radioactivity concentration ([4]; Eyeball, 6 h): 960.39 ng eq. of Compound 1/g or mL
- Radioactivity concentration ([4]; Eyeball, 24 h): 117.64 ng eq. of Compound 1/g or mL
- Radioactivity concentration ([4]; Eyeball, 72 h): 7.03 ng eq. of Compound 1/g or mL
- Radioactivity concentration ([4]; Fat, 5 min): 1181.88 ng eq. of Compound 1/g or mL
- Radioactivity concentration ([4]; Fat, 6 h): 5031.8 ng eq. of Compound 1/g or mL
- Radioactivity concentration ([4]; Fat, 24 h): 1665.35 ng eq. of Compound 1/g or mL
- Radioactivity concentration ([4]; Fat, 72 h): 112.35 ng eq. of Compound 1/g or mL
- Radioactivity concentration ([4]; Harderian gland, 5 min): 12633.83 ng eq. of Compound 1/g or mL
- Radioactivity concentration ([4]; Harderian gland, 6 h): 1418.19 ng eq. of Compound 1/g or mL
- Radioactivity concentration ([4]; Harderian gland, 24 h): 131.47 ng eq. of Compound 1/g or mL
- Radioactivity concentration ([4]; Harderian gland, 72 h): 8.95 ng eq. of Compound 1/g or mL
- Radioactivity concentration ([4]; Heart, 5 min): 8604.53 ng eq. of Compound 1/g or mL
- Radioactivity concentration ([4]; Heart, 6 h): 912.54 ng eq. of Compound 1/g or mL
- Radioactivity concentration ([4]; Heart, 24 h): 105.78 ng eq. of Compound 1/g or mL
- Radioactivity concentration ([4]; Heart, 72 h): 10.01 ng eq. of Compound 1/g or mL
- Radioactivity concentration ([4]; Kidney, 5 min): 13230.64 ng eq. of Compound 1/g or mL
- Radioactivity concentration ([4]; Kidney, 6 h): 2138.26 ng eq. of Compound 1/g or mL
- Radioactivity concentration ([4]; Kidney, 24 h): 264.55 ng eq. of Compound 1/g or mL
- Radioactivity concentration ([4]; Kidney, 72 h): 31.5 ng eq. of Compound 1/g or mL
- Radioactivity concentration ([4]; Kidney, 168 h): 12.02 ng eq. of Compound 1/g or mL
- Radioactivity concentration ([4]; Liver, 5 min): 29518.18 ng eq. of Compound 1/g or mL
- Radioactivity concentration ([4]; Liver, 6 h): 3033.96 ng eq. of Compound 1/g or mL
- Radioactivity concentration ([4]; Liver, 24 h): 740.19 ng eq. of Compound 1/g or mL
- Radioactivity concentration ([4]; Liver, 72 h): 180.72 ng eq. of Compound 1/g or mL
- Radioactivity concentration ([4]; Liver, 168 h): 48.2 ng eq. of Compound 1/g or mL
- Radioactivity concentration ([4]; Lung, 5 min): 7645.96 ng eq. of Compound 1/g or mL
- Radioactivity concentration ([4]; Lung, 6 h): 1247.84 ng eq. of Compound 1/g or mL
